Reference: patent US20200325453A1, “METHOD FOR PRODUCING NAÏVE PLURIPOTENT STEM CELLS” (priority 2015, published 2020)

Experiments:
ESRRB [1] = experiment: ESRRB gene expression by qPCR, effect of Forskolin and A83-01 on making naïve (Example 4); type: cell-based, human; details: 201B7 cells; 10 μM Forskolin and 0.5 μM A83-01 added to 2iL+Go6983 medium
ESRRB [2] = experiment: ESRRB gene expression by qPCR, effect of Go6983 addition timing (Example 3); type: cell-based, human; details: 201B7 cells passage 1; KSR 2iLFA medium with Go6983 (5 μM) versus without; doxycycline added; low oxygen
Protocol: The iPS cells gene-introduced and cloned in “1.2 Generation of gene-introduced cell line” were dissociated into single cells by using a dissociation solution and TrypLE™ Select, and seeded in a 6-well plate at 1×10^5 cells/well in which MEF cells had been seeded as feeder. At this time, as a medium, 2iLFA+Go6983 medium shown in Table 1 (hereinafter, also abbreviated as “the medium of the present invention”) was used, and cultured in low oxygen in a state in which doxycycline (1 μg/mL) was further added so as to induce expression of the introduced gene (Passage 1; P1). Note here that on the first day of the start of making naïve, Y27632 (ROCK inhibitor) was added so as to be 10 μM, […]. On day 5 to 7 after the start of making naïve, subculturing was performed. The medium was removed, and then 350 μL of 0.25% Trypsin-EDTA was added in each well to cause reaction for one minute at 37° C. The reaction was stopped by Trypsin Inhibitor, and then 5 mL of medium was added thereto. Pipetting was carried out several times using PIPETTE AID to detach colonies of iPS cells from a sheet of feeder cells. The colonies were collected in a 15-mL tube. After centrifugation, a supernatant was removed, and 200 μL of medium was added, followed by pipetting using P200 […] about 40 times to be dissociated into single cells. […]

Compound	maintenance of the naïve state of iPS cells after stopping induction of expression of the introduced gene (ESRRB [1])	expression of ESRRB (ESRRB [2])
Cc1cccc(-c2nn(C(=S)Nc3ccccc3)cc2-c2ccnc3ccccc23)n1 [A83-01, 3-(6-methyl-2-pyridinyl)-N-phenyl-4-(4-quinolinyl)-1H-pyrazole-1-carbothioamide]	needed in order to maintain the naïve state of the iPS cells	
COc1ccc2c(c1)c(C1=C(c3c[nH]c4ccccc34)C(=O)NC1=O)cn2CCCN(C)C [Go6983, 3-[1-[3-(dimethylamino)propyl]-5-methoxy-1H-indole-3-yl]-4-(1H-indole-3-yl)-1H-pyrrole-2,5-dione]		higher expression of ESRRB
